From patent US8758816B2, “Compositions comprising azelastine and methods of use thereof” (priority 2004, dated 2014)
Counter-ions that a name gives are not always drawn.

Test system: patients with seasonal allergic rhinitis (SAR)
Experiment: MP 428 two-week randomized double-blind study: Total Nasal Symptom Score (TNSS), change from baseline
Type: in vivo, human
Parameters: key to Change from Baseline in AM TNSS, Mean / Change from Baseline in AM TNSS, LS Mean / Change from Baseline in AM TNSS, Median: TNSS sum of 4 symptoms each 0-3 (0=none, 3=severe); change from baseline
Protocol: A two-week, randomized, double-blind study, which evaluated the effects of the co-administration of ASTELIN® (azelastine hydrochloride (HCl)) and FLONASE® (fluticasone propionate) compared to either product alone in patients with seasonal allergic rhinitis (SAR) was conducted during the 2006 Texas mountain cedar season. After a 5-day placebo lead-in period, 151 patients with moderate-to-severe allergic rhinitis symptoms were randomized to either: (1) (49 total patients) ASTELIN® (azelastine hydrochloride (HCl)) plus placebo saline nasal spray 2 sprays per nostril, 15 minutes apart, twice daily (AM & PM); (2) (50 total patients) FLONASE® (fluticasone propionate) plus placebo saline nasal spray, 2 sprays per nostril, 15 minutes apart, once daily (AM) and two sessions of placebo saline nasal spray, 2 sprays per nostril, 15 minutes apart (PM); or (3) (52 total patients) the co-administration of ASTELIN® (azelastine hydrochloride (HCl)) 2 sprays per nostril plus FLONASE® (fluticasone propionate) 2 sprays per nostril (AM), 15 minutes apart, and ASTELIN® (azelastine hydrochloride (HCl)) 2 sprays per nostril plus placebo saline nasal spray, 15 minutes apart, (PM) for a 2-week double-blind treatment period.
The primary efficacy variable was the change from baseline in the Total Nasal Symptom Score (TNSS), which comprised sneezing, itchy nose, runny nose, and nasal congestion (individual symptoms scores were assigned a value between 0 and 3, where 0=no symptoms and 3=severe symptoms). This study was not statistically designed to assess the differences between ASTELIN® and FLONASE®.

[1] = Day 9, Intent-to-Treat Population
[2] = Day 10, Intent-to-Treat Population
[3] = Day 10, Per-Protocol Population
[4] = Day 11, Intent-to-Treat Population
[5] = Day 11, Per-Protocol Population
[6] = Day 12, Intent-to-Treat Population

CN1CCCC(n2nc(Cc3ccc(Cl)cc3)c3ccccc3c2=O)CC1 (racemic) [Azelastine, (±)-1-(2H)-phthalazinone, 4-[(4-chlorophenyl)methyl]-2-(hexahydro-1-methyl-1H-azepin-4-yl)-, mono-hydrochloride]
Change from Baseline in AM TNSS, Median [1]: −2.00
Change from Baseline in AM and PM Combined TNSS, Mean [1]: −5.38
Change from Baseline in AM and PM Combined TNSS, Median [1]: −3.83
Change from Baseline in PM TNSS, LS Mean [1]: −2.78
Change from Baseline in PM TNSS, Mean [1]: −2.86
Change from Baseline in PM TNSS, Median [1]: −2.33
Percent Change from Baseline in AM TNSS, LS Mean [1]: −26.38%
Percent Change from Baseline in AM TNSS, Mean [1]: −26.20%
Percent Change from Baseline in AM TNSS, Median [1]: −22.22%
Percent Change from Baseline in AM and PM Combined TNSS, LS Mean [1]: −27.79%
Percent Change from Baseline in AM and PM Combined TNSS, Mean [1]: −27.72%
Percent Change from Baseline in AM and PM Combined TNSS, Median [1]: −19.35%
Percent Change from Baseline in PM TNSS, LS Mean [1]: −28.94%
Percent Change from Baseline in PM TNSS, Mean [1]: −28.91%
Percent Change from Baseline in PM TNSS, Median [1]: −25.00%
Change from Baseline in AM and PM Combined TNSS, LS Mean (Day 9, Intent-to-Treat Population, ANCOVA model): −5.36
Change from Baseline in AM and PM Combined TNSS, LS Mean (Day 9, Per-Protocol Population): −5.32
Change from Baseline in AM and PM Combined TNSS, Mean (Day 9, Per-Protocol Population): −5.38
Change from Baseline in AM and PM Combined TNSS, Median (Day 9, Per-Protocol Population): −3.83
Percent Change from Baseline in AM and PM Combined TNSS, LS Mean (Day 9, Per-Protocol Population): −27.68%
Percent Change from Baseline in AM and PM Combined TNSS, Mean (Day 9, Per-Protocol Population): −27.72%
Percent Change from Baseline in AM and PM Combined TNSS, Median (Day 9, Per-Protocol Population): −19.35%
Change from Baseline in AM TNSS, LS Mean [2]: −2.29
Change from Baseline in AM TNSS, Mean [2]: −2.27
Change from Baseline in AM TNSS, Median [2]: −2.17
Change from Baseline in AM and PM Combined TNSS, Mean [2]: −5.36
Change from Baseline in AM and PM Combined TNSS, Median [2]: −5.33
Change from Baseline in PM TNSS, LS Mean [2]: −3.01
Change from Baseline in PM TNSS, Mean [2]: −3.08
Change from Baseline in PM TNSS, Median [2]: −3.00
Percent Change from Baseline in AM TNSS, LS Mean [2]: −23.62%
Percent Change from Baseline in AM TNSS, Mean [2]: −23.81%
Percent Change from Baseline in AM TNSS, Median [2]: −23.64%
Percent Change from Baseline in AM and PM Combined TNSS, LS Mean [2]: −27.60%
Percent Change from Baseline in AM and PM Combined TNSS, Mean [2]: −27.81%
Percent Change from Baseline in AM and PM Combined TNSS, Median [2]: −28.93%
Percent Change from Baseline in PM TNSS, LS Mean [2]: −31.30%
Percent Change from Baseline in PM TNSS, Mean [2]: −31.29%
Percent Change from Baseline in PM TNSS, Median [2]: −33.33%
Change from Baseline in AM and PM Combined TNSS, LS Mean (Day 10, Intent-to-Treat Population, ANCOVA model): −5.29
Change from Baseline in AM and PM Combined TNSS, LS Mean [3]: −5.25
Change from Baseline in AM and PM Combined TNSS, Mean [3]: −5.36
Change from Baseline in AM and PM Combined TNSS, Median [3]: −5.33
Percent Change from Baseline in AM and PM Combined TNSS, LS Mean [3]: −27.49%
Percent Change from Baseline in AM and PM Combined TNSS, Mean [3]: −27.81%
Percent Change from Baseline in AM and PM Combined TNSS, Median [3]: −28.93%
Change from Baseline in AM TNSS, LS Mean [4]: −2.53
Change from Baseline in AM TNSS, Mean [4]: −2.48
Change from Baseline in AM TNSS, Median [4]: −2.00
Change from Baseline in AM and PM Combined TNSS, Mean [4]: −5.77
Change from Baseline in AM and PM Combined TNSS, Median [4]: −4.70
Change from Baseline in PM TNSS, LS Mean [4]: −3.20
Change from Baseline in PM TNSS, Mean [4]: −3.29
Change from Baseline in PM TNSS, Median [4]: −3.33
Percent Change from Baseline in AM TNSS, LS Mean [4]: −25.86%
Percent Change from Baseline in AM TNSS, Mean [4]: −25.65%
Percent Change from Baseline in AM TNSS, Median [4]: −19.40%
Percent Change from Baseline in AM and PM Combined TNSS, LS Mean [4]: −29.24%
Percent Change from Baseline in AM and PM Combined TNSS, Mean [4]: −29.42%
Percent Change from Baseline in AM and PM Combined TNSS, Median [4]: −26.11%
Percent Change from Baseline in PM TNSS, LS Mean [4]: −32.80%
Percent Change from Baseline in PM TNSS, Mean [4]: −32.77%
Percent Change from Baseline in PM TNSS, Median [4]: −33.96%
Change from Baseline in AM and PM Combined TNSS, LS Mean (Day 11, Intent-to-Treat Population, ANCOVA model): −5.70
Change from Baseline in AM and PM Combined TNSS, LS Mean [5]: −5.64
Change from Baseline in AM and PM Combined TNSS, Mean [5]: −5.77
Change from Baseline in AM and PM Combined TNSS, Median [5]: −4.70
Percent Change from Baseline in AM and PM Combined TNSS, LS Mean [5]: −29.05%
Percent Change from Baseline in AM and PM Combined TNSS, Mean [5]: −29.42%
Percent Change from Baseline in AM and PM Combined TNSS, Median [5]: −26.11%
Change from Baseline in AM TNSS, LS Mean [6]: −2.60
Change from Baseline in AM TNSS, Mean [6]: −2.58
Change from Baseline in AM TNSS, Median [6]: −2.50
Change from Baseline in AM and PM Combined TNSS, Mean [6]: −5.54
Change from Baseline in AM and PM Combined TNSS, Median [6]: −5.00
Change from Baseline in PM TNSS, LS Mean [6]: −2.85
Change from Baseline in PM TNSS, Mean [6]: −2.96
Change from Baseline in PM TNSS, Median [6]: −2.40
Percent Change from Baseline in AM TNSS, LS Mean [6]: −26.61%
Percent Change from Baseline in AM TNSS, Mean [6]: −26.72%
Percent Change from Baseline in AM TNSS, Median [6]: −26.32%
Percent Change from Baseline in AM and PM Combined TNSS, LS Mean [6]: −27.99%
Percent Change from Baseline in AM and PM Combined TNSS, Mean [6]: −28.25%
Percent Change from Baseline in AM and PM Combined TNSS, Median [6]: −25.86%
Percent Change from Baseline in PM TNSS, LS Mean [6]: −29.18%
Percent Change from Baseline in PM TNSS, Mean [6]: −29.44%
